Results reported in patent US12421225B2, “Heteroaromatic amide derivative and medicament containing the same” (KAKEN PHARMACEUTICAL CO., LTD., priority 2018, dated 2025).

Key:
human Nav1.7 = human Nav1.7 (Homo sapiens (Human), UniProt Q15858); experiment: Human Nav1.7 inhibitory activity evaluation (automated patch clamp QPatch16X, HEK293A cells stably expressing human Nav1.7 and human Navβ1); type: cell-based
In short: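 IC50 calculated from the concentration-response of inward current evoked by the second −10 mV, 50 ms depolarisation, which follows a 15 s conditioning step at roughly 30-40% inactivation and a 100 ms −120 mV interval. Cells: HEK293A expressing human Nav1.7/Navβ1, automated patch clamp, room temperature, 0.1% DMSO final.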

human Nav1.5 = human Nav1.5 (Homo sapiens (Human), UniProt Q14524); experiment: Human Nav1.5 inhibitory activity evaluation (automated patch clamp QPatch16X, HEK293 cells stably expressing human Nav1.5); type: cell-based
Sequence of human Nav1.5 (Q14524 whole entry): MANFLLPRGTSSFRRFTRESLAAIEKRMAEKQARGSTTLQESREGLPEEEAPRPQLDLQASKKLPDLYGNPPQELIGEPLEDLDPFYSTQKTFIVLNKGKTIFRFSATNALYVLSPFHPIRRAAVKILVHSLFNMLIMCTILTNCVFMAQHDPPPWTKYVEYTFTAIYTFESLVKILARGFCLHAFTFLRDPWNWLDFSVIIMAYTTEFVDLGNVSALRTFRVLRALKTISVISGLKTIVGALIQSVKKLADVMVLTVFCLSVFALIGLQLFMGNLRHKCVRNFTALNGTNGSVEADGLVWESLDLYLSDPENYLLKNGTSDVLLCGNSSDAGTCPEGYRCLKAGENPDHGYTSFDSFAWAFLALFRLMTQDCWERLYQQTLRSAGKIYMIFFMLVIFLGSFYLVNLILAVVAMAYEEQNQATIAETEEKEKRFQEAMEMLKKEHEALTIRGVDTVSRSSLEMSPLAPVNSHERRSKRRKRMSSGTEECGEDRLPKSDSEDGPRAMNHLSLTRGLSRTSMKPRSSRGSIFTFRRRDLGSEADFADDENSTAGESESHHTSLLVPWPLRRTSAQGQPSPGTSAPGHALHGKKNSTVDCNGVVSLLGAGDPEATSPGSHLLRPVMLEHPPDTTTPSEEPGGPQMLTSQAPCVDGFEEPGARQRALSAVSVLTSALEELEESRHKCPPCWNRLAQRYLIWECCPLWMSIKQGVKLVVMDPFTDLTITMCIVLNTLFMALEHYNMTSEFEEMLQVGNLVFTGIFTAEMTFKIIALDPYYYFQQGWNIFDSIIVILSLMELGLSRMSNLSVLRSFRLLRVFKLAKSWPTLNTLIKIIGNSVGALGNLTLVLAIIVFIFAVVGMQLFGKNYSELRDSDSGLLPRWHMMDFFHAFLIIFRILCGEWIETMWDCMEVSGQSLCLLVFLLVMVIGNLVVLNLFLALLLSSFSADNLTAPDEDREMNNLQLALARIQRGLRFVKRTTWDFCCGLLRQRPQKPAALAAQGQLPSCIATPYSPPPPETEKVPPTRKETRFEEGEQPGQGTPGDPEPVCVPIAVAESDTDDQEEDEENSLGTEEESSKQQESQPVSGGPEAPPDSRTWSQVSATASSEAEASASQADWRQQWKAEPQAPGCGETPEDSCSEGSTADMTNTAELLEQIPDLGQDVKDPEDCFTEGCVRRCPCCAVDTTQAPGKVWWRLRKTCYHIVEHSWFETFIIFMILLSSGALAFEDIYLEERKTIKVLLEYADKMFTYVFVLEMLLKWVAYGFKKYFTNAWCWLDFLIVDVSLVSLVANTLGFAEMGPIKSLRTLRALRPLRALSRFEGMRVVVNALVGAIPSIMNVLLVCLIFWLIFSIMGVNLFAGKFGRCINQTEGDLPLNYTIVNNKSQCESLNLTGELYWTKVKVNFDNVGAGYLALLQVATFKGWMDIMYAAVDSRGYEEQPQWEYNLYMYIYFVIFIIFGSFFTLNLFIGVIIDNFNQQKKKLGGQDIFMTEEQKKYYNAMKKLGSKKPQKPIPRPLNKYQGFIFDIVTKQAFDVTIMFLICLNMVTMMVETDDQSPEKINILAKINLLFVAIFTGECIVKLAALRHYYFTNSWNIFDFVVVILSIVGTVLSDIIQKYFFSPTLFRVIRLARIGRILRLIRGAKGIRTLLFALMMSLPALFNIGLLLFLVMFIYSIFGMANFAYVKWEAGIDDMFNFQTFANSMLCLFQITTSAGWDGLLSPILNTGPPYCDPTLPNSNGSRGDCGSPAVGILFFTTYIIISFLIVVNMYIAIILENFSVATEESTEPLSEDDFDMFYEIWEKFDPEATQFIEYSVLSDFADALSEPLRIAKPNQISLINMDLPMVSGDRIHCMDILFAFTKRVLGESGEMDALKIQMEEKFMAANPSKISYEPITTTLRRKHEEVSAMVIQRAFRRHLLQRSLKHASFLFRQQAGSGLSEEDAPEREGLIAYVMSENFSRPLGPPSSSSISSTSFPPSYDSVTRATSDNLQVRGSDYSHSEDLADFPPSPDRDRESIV
In short: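 IC50 derived from concentration-response of inward current at the 20th of 20 action-potential-mimicking pulses (holding −80 mV, leak corrected with −100 mV step). HEK293 cells stably expressing human Nav1.5, room temperature, extracellular pH 7.4, intracellular CsF-based pH 7.3, 0.1% DMSO.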

[1] = human Nav1.7, automated patch clamp
[2] = human Nav1.5, automated patch clamp
[3] = HEK293A cells stably expressing human Nav1.7 and human Navβ1, automated patch clamp QPatch16X
[4] = HEK293 cells stably expressing human Nav1.5, automated patch clamp QPatch16X

Sequence of human Nav1.7 (Q15858 whole entry): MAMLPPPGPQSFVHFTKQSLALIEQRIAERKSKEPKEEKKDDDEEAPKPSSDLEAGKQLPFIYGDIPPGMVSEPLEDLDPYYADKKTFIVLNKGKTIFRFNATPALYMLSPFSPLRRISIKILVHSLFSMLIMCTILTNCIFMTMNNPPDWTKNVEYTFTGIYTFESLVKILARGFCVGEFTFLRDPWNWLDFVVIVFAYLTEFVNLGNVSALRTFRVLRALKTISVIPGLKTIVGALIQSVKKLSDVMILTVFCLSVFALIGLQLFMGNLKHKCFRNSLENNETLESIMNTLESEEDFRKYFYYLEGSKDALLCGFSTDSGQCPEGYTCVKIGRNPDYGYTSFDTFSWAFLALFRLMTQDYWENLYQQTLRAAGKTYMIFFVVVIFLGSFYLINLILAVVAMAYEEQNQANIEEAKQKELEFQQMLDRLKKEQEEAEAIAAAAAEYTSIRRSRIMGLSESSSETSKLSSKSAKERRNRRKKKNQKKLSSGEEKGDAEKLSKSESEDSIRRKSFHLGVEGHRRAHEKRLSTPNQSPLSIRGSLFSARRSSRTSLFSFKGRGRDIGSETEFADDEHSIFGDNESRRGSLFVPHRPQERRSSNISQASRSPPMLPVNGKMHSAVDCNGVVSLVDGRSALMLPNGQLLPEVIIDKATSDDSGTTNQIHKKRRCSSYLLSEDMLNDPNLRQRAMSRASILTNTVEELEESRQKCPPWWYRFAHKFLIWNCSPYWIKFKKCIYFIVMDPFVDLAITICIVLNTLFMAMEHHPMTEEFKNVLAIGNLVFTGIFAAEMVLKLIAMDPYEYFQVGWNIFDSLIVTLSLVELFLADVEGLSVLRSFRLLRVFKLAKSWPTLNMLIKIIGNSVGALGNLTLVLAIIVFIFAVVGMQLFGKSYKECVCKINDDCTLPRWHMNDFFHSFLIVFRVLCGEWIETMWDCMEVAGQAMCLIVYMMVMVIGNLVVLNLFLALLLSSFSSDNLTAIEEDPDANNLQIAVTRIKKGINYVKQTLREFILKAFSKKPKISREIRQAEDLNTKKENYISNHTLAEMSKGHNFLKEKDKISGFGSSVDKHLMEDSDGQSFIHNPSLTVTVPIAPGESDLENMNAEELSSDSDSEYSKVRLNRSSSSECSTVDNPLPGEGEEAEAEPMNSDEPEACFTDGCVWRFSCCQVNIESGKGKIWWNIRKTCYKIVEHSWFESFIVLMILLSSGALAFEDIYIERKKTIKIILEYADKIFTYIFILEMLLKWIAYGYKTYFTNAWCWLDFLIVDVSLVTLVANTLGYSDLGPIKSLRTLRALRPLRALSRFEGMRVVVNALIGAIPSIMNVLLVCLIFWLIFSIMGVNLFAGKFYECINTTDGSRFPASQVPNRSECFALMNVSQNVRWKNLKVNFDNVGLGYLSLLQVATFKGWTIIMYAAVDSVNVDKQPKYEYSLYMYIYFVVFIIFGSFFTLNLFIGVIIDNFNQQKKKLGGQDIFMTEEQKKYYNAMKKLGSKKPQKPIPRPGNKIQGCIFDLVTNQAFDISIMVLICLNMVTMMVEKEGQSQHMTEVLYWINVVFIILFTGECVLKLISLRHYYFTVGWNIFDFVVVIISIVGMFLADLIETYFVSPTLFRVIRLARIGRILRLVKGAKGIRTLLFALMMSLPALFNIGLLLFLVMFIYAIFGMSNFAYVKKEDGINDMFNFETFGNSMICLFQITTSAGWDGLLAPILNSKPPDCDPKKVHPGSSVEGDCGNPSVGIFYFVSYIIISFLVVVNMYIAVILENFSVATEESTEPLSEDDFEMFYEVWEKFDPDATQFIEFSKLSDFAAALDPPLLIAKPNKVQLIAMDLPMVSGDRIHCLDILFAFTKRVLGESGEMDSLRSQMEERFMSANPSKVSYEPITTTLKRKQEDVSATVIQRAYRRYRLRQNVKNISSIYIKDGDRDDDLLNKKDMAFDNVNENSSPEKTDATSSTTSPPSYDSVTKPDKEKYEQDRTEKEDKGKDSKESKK
Sequence of human Nav1.7 (Q07699 19-218 partner): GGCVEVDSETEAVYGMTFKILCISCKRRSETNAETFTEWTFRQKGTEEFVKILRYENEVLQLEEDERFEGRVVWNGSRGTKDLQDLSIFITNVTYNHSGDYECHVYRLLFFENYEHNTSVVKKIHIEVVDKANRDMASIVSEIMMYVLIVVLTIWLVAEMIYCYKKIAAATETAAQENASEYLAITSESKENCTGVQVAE

| Compound | IC50 (human Nav1.7; [1]) [µM] | IC50 (human Nav1.5; [2]) [µM] | IC50 (human Nav1.7; [3]) [µM] | IC50 (human Nav1.5; [4]) [µM] |
| --- | --- | --- | --- | --- |
| O=C(N[C@H]1COc2ccc(CC(F)F)cc2C1)c1cc2n(n1)CCC(COCC(F)(F)F)CO2 (single isomer, unassigned) [601 (isomer B)] | < 10 | ≥ 3 | – | – |
| O=C(N[C@H]1COc2ccc(COCC(F)(F)F)cc2C1)c1cc2n(n1)CCC(COCC(F)(F)F)CO2 (single isomer, unassigned) [602 (isomer A)] | < 1 | ≥ 3 | – | – |
| O=C(N[C@H]1COc2ccc(C(F)(F)F)cc2C1O)c1cc2n(n1)CC(CCCOCC(F)(F)F)O2 (single isomer, unassigned) [603 (isomer B)] | < 1 | ≥ 3 | – | – |
| N#Cc1ccc2c(c1)C[C@@H](NC(=O)c1cc3n(n1)CC(CCCOCC(F)F)O3)CO2 (single isomer, unassigned) [604 (isomer A)] | < 1 | 1 to 3 | – | – |
| O=C(N[C@H]1COc2ccc(C(F)(F)F)cc2C1O)c1cc2n(n1)CC(CCCOCC(F)F)O2 (single isomer, unassigned) [608 (isomer A)] | < 1 | ≥ 3 | – | – |
| O=C(N[C@H]1COc2ccc(C(F)(F)F)cc2C1O)c1cc2n(n1)CC(CCCOCC(F)F)O2 (single isomer, unassigned) [608 (isomer B)] | < 1 | ≥ 3 | – | – |
| O=C(N[C@H]1COc2ccc(C(F)(F)F)cc2C1O)c1cc2n(n1)CC(CCCOCC(F)F)O2 (single isomer, unassigned) [610 (isomer A)] | < 1 | ≥ 3 | – | – |
| O=C(N[C@H]1COc2ccc(COCC(F)(F)F)cc2C1)c1cc2n(n1)CCC(C1CCOCC1)O2 (single isomer, unassigned) [615 (isomer A)] | < 1 | 1 to 3 | – | – |
| O=C(N[C@H]1COc2ccc(COCC(F)(F)F)cc2C1)c1cc2n(n1)CCC(C1CCOCC1)O2 (single isomer, unassigned) [615 (isomer B)] | < 1 | ≥ 3 | – | – |
| O=C(N[C@H]1COc2ccc(C(F)(F)F)cc2C1O)c1cc2n(n1)CC(CCCOCC(F)(F)F)O2 (single isomer, unassigned) [616 (isomer A)] | < 1 | 1 to 3 | – | – |
| N#Cc1ccc2c(c1)C(F)[C@@H](NC(=O)c1cc3n(n1)CCC(COCC1CC1)O3)CO2 (single isomer, unassigned) [617 (isomer A)] | < 1 | ≥ 3 | – | – |
| N#Cc1ccc2c(c1)C(F)[C@@H](NC(=O)c1cc3n(n1)CCC(COCC1CC1)O3)CO2 (single isomer, unassigned) [617 (isomer C)] | < 10 | ≥ 3 | – | – |
| O=C(N[C@H]1COc2ccc(COCC(F)(F)F)cc2C1)c1cc2n(n1)CC(CC1CCOCC1)O2 (single isomer, unassigned) [622 (isomer A)] | < 1 | ≥ 3 | – | – |
| O=C(N[C@H]1COc2ccc(Cl)cc2C1)c1cn2c(n1)CCC(C(F)(F)F)C2 (single isomer, unassigned) [Example 2 (isomer A)] | – | – | < 1 | 1 to 3 |
| O=C(N[C@H]1COc2ccc(Cl)cc2C1)c1cn2c(n1)CCC(C(F)(F)F)C2 (single isomer, unassigned) [Example 2 (isomer B)] | – | – | < 1 | ≥ 3 |
| CN(C(=O)c1cn2c(n1)CCC(C(F)(F)F)C2)[C@H]1COc2ccc(Cl)cc2C1 (single isomer, unassigned) [Example 4] | – | – | < 10 | ≥ 3 |
| O=C(N[C@H]1COc2ccc(C(F)(F)F)cc2C1O)c1cc2n(n1)CCC(COCC(F)(F)F)CO2 (single isomer, unassigned) [Example 683] | < 10 | ≥ 3 | – | – |
| N#Cc1ccc2c(c1)C[C@@H](NC(=O)c1cc3n(n1)CC[C@H](COCC(F)(F)F)CO3)CO2 (single isomer, unassigned; isomer a) [572(isomer A)] | < 10 | ≥ 3 | – | – |
| O=C(N[C@H]1COc2ccc(C(F)(F)F)cc2C1O)c1cc2n(n1)CC[C@H](COCC1CC1)O2 (single isomer, unassigned; isomer a) [575(isomer A)] | < 1 | 1 to 3 | – | – |
| O=C(N[C@H]1COc2ccc(C(F)(F)F)cc2C1O)c1cc2n(n1)C[C@H](COCC1CC1)O2 (single isomer, unassigned; isomer a) [576(isomer A)] | < 1 | ≥ 3 | – | – |
| O=C(N[C@H]1COc2ccc(C(F)(F)F)cc2C1F)c1cc2n(n1)CC[C@H](C(F)F)O2 (single isomer, unassigned; isomer a) [579(isomer A)] | < 1 | 1 to 3 | – | – |
| COC1c2cc(C(F)(F)F)ccc2OC[C@@H]1NC(=O)c1cc2n(n1)CC(COCC(F)(F)F)O2 (single isomer, unassigned; isomer a) [597(isomer A)] | < 1 | ≥ 3 | – | – |

| Compound | IC50 (human Nav1.7; [1]) [µM] | IC50 (human Nav1.5; [2]) [µM] | IC50 (human Nav1.7; [3]) [µM] | IC50 (human Nav1.5; [4]) [µM] |
| --- | --- | --- | --- | --- |
| COC1c2cc(C(F)(F)F)ccc2OC[C@@H]1NC(=O)c1cc2n(n1)CC(COCC(F)(F)F)O2 (single isomer, unassigned; isomer b) [597(isomer B)] | < 1 | 1 to 3 | – | – |
| O=C(NC1COc2ccc(F)cc2C1)c1cn2c(n1)CCC(C(F)(F)F)C2 (centres unmarked) [Example 1, N-(6-fluorochroman-3-yl)-6-(trifluoromethyl)-5,6,7,8-tetrahydroimidazo[1,2-a]pyridine-2-carboxamide] | – | – | < 10 | ≥ 3 |
| CN(C(=O)c1cn2c(n1)CCC(C(F)(F)F)C2)[C@H]1COc2ccc(Cl)cc2C1 (some centres unmarked) [Example 3] | – | – | < 1 | 1 to 3 |
| O=C(N[C@H]1COc2ccc(Br)cc2C1)c1cn2c(n1)CCC(C(F)(F)F)C2 (some centres unmarked) [Example 5] | – | – | < 1 | 1 to 3 |
| O=C(N[C@H]1COc2ccc(C(F)F)cc2C1)c1cn2c(n1)CCC(C(F)(F)F)C2 (some centres unmarked) [Example 6] | – | – | < 10 | 1 to 3 |
| O=C(NC1COc2cccc(Cl)c2C1)c1cn2c(n1)CCC(C(F)(F)F)C2 (centres unmarked) [Example 8] | – | – | < 1 | ≥ 3 |
| CCc1ccc2c(c1)C[C@@H](NC(=O)c1cn3c(n1)CCC(C(F)(F)F)C3)CO2 (some centres unmarked) [Example 11] | – | – | < 1 | ≥ 3 |
| O=C(NC1COc2ccc(Br)cc2C1)c1cn2c(n1)CCC(C(F)(F)F)C2 (centres unmarked) [Example 12] | – | – | < 1 | 1 to 3 |
| O=C(N[C@H]1COc2ccccc2C1)c1nc2n(c1I)CC(C(F)(F)F)CC2 (stereo partly drawn) [Example 14, N—((R)-chroman-3-yl)-3-iodo-6-(trifluoromethyl)-5,6,7,8-tetrahydroimidazo[1,2-a]pyridine-2-carboxamide] | – | – | < 10 | ≥ 3 |
| O=C(N[C@H]1COc2ccccc2C1)c1nc2n(c1-c1ccccc1)CCCC2 [Example 16] | – | – | < 1 | < 1 |
| COc1cccc(-c2c(C(=O)N[C@H]3COc4ccc(Cl)cc4C3)nc3n2CCCC3)n1 [Example 17, (R)—N-(6-chlorochroman-3-yl)-3-(6-methoxypyridin-2-yl)-5,6,7,8-tetrahydroimidazo[1,2-a]pyridine-2-carboxamide] | – | – | < 1 | 1 to 3 |
| O=C(N[C@H]1COc2ccc(C(F)(F)F)cc2C1)c1nc2n(c1-c1ccn[nH]1)CCCC2 [Example 19] | – | – | < 1 | < 1 |
| O=C(N[C@H]1COc2ccc(COCC(F)(F)F)cc2C1)c1nc2n(c1-c1ccn[nH]1)CCCC2 [Example 20] | – | – | < 1 | < 1 |
| O=C(NCCc1cccc(C(F)(F)F)c1)c1nc2n(c1-c1ccccc1)CCCC2 [Example 22] | – | – | < 10 | ≥ 3 |
| CCC1CCc2nc(C(=O)N[C@H]3COc4ccccc4C3)cn2C1 (some centres unmarked) [Example 23] | – | – | < 10 | ≥ 3 |
| O=C(N[C@H]1COc2ccccc2C1)c1nc2n(c1Cl)CC(c1ccccc1)CC2 (some centres unmarked) [Example 25] | – | – | < 10 | 1 to 3 |
| COc1ncccc1C1CCc2nc(C(=O)N3CCC(c4ccccc4)C3)cn2C1 (centres unmarked) [Example 26] | – | – | < 10 | ≥ 3 |
| COc1cccc(C2CCc3nc(C(=O)N[C@H]4COc5ccccc5C4)cn3C2)n1 (some centres unmarked) [Example 27] | – | – | < 1 | < 1 |
| COc1cccc(OC2CCN(C(=O)c3cn4c(n3)CCC(C3CCCC3)C4)C2)n1 (centres unmarked) [Example 28] | – | – | < 10 | ≥ 3 |
| O=C(c1cn2c(n1)CCC(CCc1ccccc1)C2)N1CCC(Oc2ccccn2)C1 (centres unmarked) [Example 29] | – | – | < 10 | 1 to 3 |
| O=C(c1cn2c(n1)CCC(c1cccnc1C(F)(F)F)C2)N1CCC1Cc1ccccc1 (centres unmarked) [Example 30] | – | – | < 10 | ≥ 3 |
